Results: PubChem BioAssay AID192 (DTP/NCI, 2004)
Toxic doses and inconclusive results are not listed. Rule for the calls: active = survival T/C of 150% or more; inactive = T/C below 125% in these data.

Test system: BDF1 mice, B16 melanoma ip, median survival T/C
Experiment: NCI In Vivo Anticancer Drug Screen. Data for tumor model B16 Melanoma (intraperitoneal) in B6D2F1 (BDF1) mice
Conditions: endpoint: median survival time, higher = longer survival
How it was run: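 Read-out: survival or tumor size, given as treated/control ratio. Controls received vehicle only; animals bore transplantable tumors.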

[1] = dose: 100.0 mg/kg/injection, schedule: Q01DX009 (ip), vehicle: saline
[2] = dose: 50.0 mg/kg/injection, schedule: Q01DX009 (ip), vehicle: saline
[3] = dose: 100.0 mg/kg/injection, schedule: Q01DX009 (ip), vehicle: Klucel (hydroxypropylcellulose) (HPC)
[4] = dose: 200.0 mg/kg/injection, schedule: Q01DX009 (ip), vehicle: Klucel (hydroxypropylcellulose) (HPC)
[5] = dose: 100.0 mg/kg/injection, schedule: Q04DX003 (ip), vehicle: Klucel (hydroxypropylcellulose) (HPC)
[6] = dose: 200.0 mg/kg/injection, schedule: Q04DX003 (ip), vehicle: Klucel (hydroxypropylcellulose) (HPC)
[7] = dose: 400.0 mg/kg/injection, schedule: Q01DX009 (ip), vehicle: Klucel (hydroxypropylcellulose) (HPC)
[8] = dose: 50.0 mg/kg/injection, schedule: Q01DX009 (ip), vehicle: Klucel (hydroxypropylcellulose) (HPC)
[9] = dose: 50.0 mg/kg/injection, schedule: Q04DX003 (ip), vehicle: Klucel (hydroxypropylcellulose) (HPC)

Measured: T/C

CC1CCC(O)C1O (stereo not given)
inactive: [1] 120 % of control | dose: 200.0 mg/kg/injection, schedule: Q01DX009 (ip), vehicle: saline 120 % of control | dose: 400.0 mg/kg/injection, schedule: Q01DX009 (ip), vehicle: saline 122 % of control

O=[N+]([O-])c1ccc(C=C2C(Cl)=C(Cl)C(Cl)=C2Cl)cc1
inactive: dose: 3.13 mg/kg/injection, schedule: Q01DX009 (ip), vehicle: saline with Tween-80 101 % of control | dose: 6.25 mg/kg/injection, schedule: Q01DX009 (ip), vehicle: saline with Tween-80 91 % of control | dose: 12.5 mg/kg/injection, schedule: Q01DX009 (ip), vehicle: saline with Tween-80 89 % of control

CC(=O)[O][Pb]([CH2]CC(C)C)([CH2]CC(C)C)[CH2]CC(C)C
inactive: dose: 0.75 mg/kg/injection, schedule: Q01DX009 (ip), vehicle: Klucel (hydroxypropylcellulose) (HPC) 100 % of control | dose: 1.5 mg/kg/injection, schedule: Q01DX009 (ip), vehicle: Klucel (hydroxypropylcellulose) (HPC) 86 % of control

CC1CC(C)(C)N=C(CCC2CCCC23OCCO3)O1 (stereo not given)
inactive: [2] 108 % of control | [1] 111 % of control

Cc1cc2nc3ccc(N)cc3oc-2cc1=[N+](C)C
inactive: dose: 6.25 mg/kg/injection, schedule: Q01DX009 (ip), vehicle: Klucel (hydroxypropylcellulose) (HPC) 105 % of control | dose: 6.25 mg/kg/injection, schedule: Q01DX009 (ip), vehicle: saline 123 % of control | dose: 12.5 mg/kg/injection, schedule: Q01DX009 (ip), vehicle: Klucel (hydroxypropylcellulose) (HPC) 110 % of control | dose: 12.5 mg/kg/injection, schedule: Q01DX009 (ip), vehicle: saline 119 % of control | dose: 25.0 mg/kg/injection, schedule: Q01DX009 (ip), vehicle: Klucel (hydroxypropylcellulose) (HPC) 117 % of control

Cc1cc(C)c(NC(=O)Nc2cccc(Cl)c2)c(C)c1
inactive: [3] 88 % of control | [4] 94 % of control

CCOC1=C(Br)C=CN(S(=O)(=O)c2ccc(C)cc2)c2ccc(OC)cc21
inactive: [5] 96 % of control | [6] 90 % of control | dose: 400.0 mg/kg/injection, schedule: Q04DX003 (ip), vehicle: Klucel (hydroxypropylcellulose) (HPC) 91 % of control

CCOC(=O)C(C)Oc1ccccc1[N+](=O)[O-] (stereo not given)
inactive: [3] 103 % of control | [4] 96 % of control | [7] 103 % of control

CCOc1ccccc1NC(=O)Nc1cccc(Cl)c1
inactive: [3] 106 % of control | [4] 96 % of control | [7] 106 % of control

O=[N+]([O-])c1cc([N+](=O)[O-])c(Nc2cccc3ccccc23)c([N+](=O)[O-])c1
inactive: [8] 92 % of control | [3] 103 % of control | [4] 97 % of control

CC(Br)C1(c2cccc([N+](=O)[O-])c2)OCCO1 (stereo not given)
inactive: dose: 25.0 mg/kg/injection, schedule: Q04DX003 (ip), vehicle: Klucel (hydroxypropylcellulose) (HPC) 94 % of control | [9] 92 % of control

CCOC(=O)C(C#N)N=O (stereo not given)
inactive: [2] 111 % of control | dose: 50.0 mg/kg/injection, schedule: Q04DX003 (ip), vehicle: saline 106 % of control | dose: 100.0 mg/kg/injection, schedule: Q04DX003 (ip), vehicle: saline 113 % of control

CC(=O)Oc1ccc(N2C(=O)C3C(C2=O)C2c4ccccc4C3C3CCCCN32)cc1 (stereo not given) (tested in a mixture with another compound)
inactive: dose: 12.5 mg/kg/injection, schedule: Q01DX009 (ip), vehicle: water 103 % of control | dose: 25.0 mg/kg/injection, schedule: Q01DX009 (ip), vehicle: water 97 % of control | dose: 50.0 mg/kg/injection, schedule: Q01DX009 (ip), vehicle: water 104 % of control | dose: 100.0 mg/kg/injection, schedule: Q01DX009 (ip), vehicle: water 97 % of control

CCCCCCCCCCCC(c1ccccc1)[N+](C)(C)Cc1ccccc1 (stereo not given)
inactive: dose: 0.25 mg/kg/injection, schedule: Q01DX009 (ip), vehicle: saline sonified 94 % of control | dose: 0.5 mg/kg/injection, schedule: Q01DX009 (ip), vehicle: saline sonified 110 % of control | dose: 1.0 mg/kg/injection, schedule: Q01DX009 (ip), vehicle: saline sonified 105 % of control | dose: 2.0 mg/kg/injection, schedule: Q01DX009 (ip), vehicle: saline sonified 102 % of control

CC1C2CCC3C(O)C2(CC(O)C2(O)C1CC(O)C2(C)C)CC3(C)O (stereo not given)
inactive: dose: 0.25 mg/kg/injection, schedule: Q01DX009 (ip), vehicle: Klucel (hydroxypropylcellulose) (HPC) 103 % of control | dose: 0.5 mg/kg/injection, schedule: Q01DX009 (ip), vehicle: Klucel (hydroxypropylcellulose) (HPC) 103 % of control

CCC(C)c1ccccc1OC(=O)Nc1ccc(OC)cc1 (stereo not given)
inactive: [8] 100 % of control | [9] 106 % of control | [3] 103 % of control | [5] 106 % of control | [4] 100 % of control | [6] 103 % of control
